Data reported in patent publication US12209087B2, “AKT1 modulators” (Alterome Therapeutics, Inc., priority 2022, dated 2025).

Target: T1, full length AKT E17K (Homo sapiens, UniProt P31749, E17K)
T1 construct: host or cells: HEK-293 (ATCC CRL-1573)
Test: NanoBRET Target Engagement (TE) Assay
Format: cell-based
Settings: competitive displacement of tracer in cells, read-out: AKT1 E17K IC50
Procedure, shortened: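 Compound and tracer incubated 2 h before luminescence at donor 450 nm and acceptor 600 nm, with extracellular signal inhibited. EC50 by sigmoidal variable-slope regression.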

T1 sequence (P31749 whole entry E17K): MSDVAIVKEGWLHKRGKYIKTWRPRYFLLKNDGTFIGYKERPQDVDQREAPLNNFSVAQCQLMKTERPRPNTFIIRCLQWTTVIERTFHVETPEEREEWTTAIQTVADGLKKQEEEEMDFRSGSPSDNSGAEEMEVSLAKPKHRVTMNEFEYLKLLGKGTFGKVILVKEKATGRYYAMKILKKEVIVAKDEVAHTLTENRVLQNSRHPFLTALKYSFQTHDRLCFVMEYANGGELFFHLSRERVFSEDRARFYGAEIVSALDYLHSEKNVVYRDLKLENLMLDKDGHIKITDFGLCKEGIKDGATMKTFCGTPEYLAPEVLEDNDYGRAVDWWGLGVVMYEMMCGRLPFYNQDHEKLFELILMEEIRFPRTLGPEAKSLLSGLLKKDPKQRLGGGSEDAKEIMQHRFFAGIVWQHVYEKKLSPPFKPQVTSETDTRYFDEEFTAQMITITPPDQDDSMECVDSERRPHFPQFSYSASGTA

Structure (SMILES) | IC50 [nM]
[2H]C1(Nc2ccnc(C#N)n2)CCN(Cc2ccc(-n3c(-c4cccnc4N)nc4ccc(-c5ccc(F)cc5)nc43)cc2)CC1 [Example 451, 4-((1-(4-(2-(2-Aminopyridin-3-yl)-5-(4-fluorophenyl)-3H-imidazo[4,5-b]pyridin-3-yl)benzyl)piperidin-4-yl-4-d)amino)pyrimidine-2-carbonitrile] | < 15
[2H]C1(Nc2ccnc(C#N)n2)CCN(Cc2ccc(-n3c(-c4cccnc4N)nc4cc(C)c(C)nc43)cc2)CC1 [Example 452, 4-((1-(4-(2-(2-Aminopyridin-3-yl)-5,6-dimethyl-3H-imidazo[4,5-b]pyridin-3-yl)benzyl)piperidin-4-yl-4-d)amino)pyrimidine-2-carbonitrile] | < 15
N#Cc1nccc(NC2CCN(Cc3ccc(-n4c(-c5cccnc5N)nc5ccc(C6=CCCC6)nc54)cc3)CC2)n1 [Example 453, 4-((1-(4-(2-(2-aminopyridin-3-yl)-5-(cyclopent-1-en-1-yl)-3H-imidazo[4,5-b]pyridin-3-yl)benzyl)piperidin-4-yl)amino)pyrimidine-2-carbonitrile] | < 15
C=Cc1ccc2nc(-c3cccnc3N)n(-c3ccc(CN4CCC(Nc5ccnc(C#N)n5)CC4)cc3)c2n1 [Example 454, 4-((1-(4-(2-(2-Aminopyridin-3-yl)-5-vinyl-3H-imidazo[4,5-b]pyridin-3-yl)benzyl)piperidin-4-yl)amino)pyrimidine-2-carbonitrile] | < 15
[2H]C([2H])([2H])N(c1ccnc(C#N)n1)C1CCN(Cc2ccc(-n3c(-c4cccnc4N)nc4cc(C)c(C)nc43)cc2)CC1 [Example 455, 4-((1-(4-(2-(2-Aminopyridin-3-yl)-5,6-dimethyl-3H-imidazo[4,5-b]pyridin-3-yl)benzyl)piperidin-4-yl)(methyl-d3)amino)pyrimidine-2-carbonitrile] | < 15
N#Cc1nccc(NC2CCN(Cc3ccc(-n4c(-c5cccnc5N)nc5ccc(-c6ccc(F)cn6)nc54)cc3)CC2)n1 [Example 456, 4-((1-(4-(2-(2-Aminopyridin-3-yl)-5-(5-fluoropyridin-2-yl)-3H-imidazo[4,5-b]pyridin-3-yl)benzyl)piperidin-4-yl)amino)pyrimidine-2-carbonitrile] | < 15
CNc1ccc2nc(-c3cccnc3N)n(-c3ccc(CN4CCC(Nc5ccnc(C#N)n5)CC4)cc3)c2n1 [Example 457, 4-((1-(4-(2-(2-Aminopyridin-3-yl)-5-(methylamino)-3H-imidazo[4,5-b]pyridin-3-yl)benzyl)piperidin-4-yl)amino)pyrimidine-2-carbonitrile] | 15 to 60
[2H]C([2H])([2H])N(c1ccc2nc(-c3cccnc3N)n(-c3ccc(CN4CCC(Nc5ccnc(C#N)n5)CC4)cc3)c2n1)C([2H])([2H])[2H] [Example 458, 4-((1-(4-(2-(2-Aminopyridin-3-yl)-5-(bis(methyl-d3)amino)-3H-imidazo[4,5-b]pyridin-3-yl)benzyl)piperidin-4-yl)amino)pyrimidine-2-carbonitrile] | < 15
[2H]C([2H])([2H])Nc1ccc2nc(-c3cccnc3N)n(-c3ccc(CN4CCC(Nc5ccnc(C#N)n5)CC4)cc3)c2n1 [Example 459, 4-((1-(4-(2-(2-Aminopyridin-3-yl)-5-((methyl-d3)amino)-3H-imidazo[4,5-b]pyridin-3-yl)benzyl)piperidin-4-yl)amino)pyrimidine-2-carbonitrile] | < 15
N#Cc1nccc(NC2CCN(Cc3ccc(-n4c(-c5cccnc5N)nc5ccc(N6CCC6)nc54)cc3)CC2)n1 [Example 460, 4-((1-(4-(2-(2-Aminopyridin-3-yl)-5-(azetidin-1-yl)-3H-imidazo[4,5-b]pyridin-3-yl)benzyl)piperidin-4-yl)amino)pyrimidine-2-carbonitrile] | < 15
N#Cc1nccc(NC2CCN(Cc3ccc(-n4c(-c5cccnc5N)nc5ccc(-c6cnoc6)nc54)cc3)CC2)n1 [Example 461, 4-((1-(4-(2-(2-Aminopyridin-3-yl)-5-(isoxazol-4-yl)-3H-imidazo[4,5-b]pyridin-3-yl)benzyl)piperidin-4-yl)amino)pyrimidine-2-carbonitrile] | < 15
N#Cc1nccc(NC2CCN(Cc3ccc(-n4c(-c5cccnc5N)nc5ccc(-c6cnco6)nc54)cc3)CC2)n1 [Example 462, 4-((1-(4-(2-(2-Aminopyridin-3-yl)-5-(oxazol-5-yl)-3H-imidazo[4,5-b]pyridin-3-yl)benzyl)piperidin-4-yl)amino)pyrimidine-2-carbonitrile] | < 15
Cc1oncc1-c1ccc2nc(-c3cccnc3N)n(-c3ccc(CN4CCC(Nc5ccnc(C#N)n5)CC4)cc3)c2n1 [Example 463, 4-((1-(4-(2-(2-Aminopyridin-3-yl)-5-(5-methylisoxazol-4-yl)-3H-imidazo[4,5-b]pyridin-3-yl)benzyl)piperidin-4-yl)amino)pyrimidine-2-carbonitrile] | < 15

The next lines start with the values.

IC50 [nM] | Structure (SMILES)
< 15 | Cc1nocc1-c1ccc2nc(-c3cccnc3N)n(-c3ccc(CN4CCC(Nc5ccnc(C#N)n5)CC4)cc3)c2n1 [Example 464, 4-((1-(4-(2-(2-Aminopyridin-3-yl)-5-(3-methylisoxazol-4-yl)-3H-imidazo[4,5-b]pyridin-3-yl)benzyl)piperidin-4-yl)amino)pyrimidine-2-carbonitrile]
< 15 | Cc1cc(-c2ccc3nc(-c4cccnc4N)n(-c4ccc(CN5CCC(Nc6ccnc(C#N)n6)CC5)cc4)c3n2)[nH]n1 [Example 465, 4-((1-(4-(2-(2-Aminopyridin-3-yl)-5-(3-methyl-1H-pyrazol-5-yl)-3H-imidazo[4,5-b]pyridin-3-yl)benzyl)piperidin-4-yl)amino)pyrimidine-2-carbonitrile]
< 15 | CCn1cc(-c2ccc3nc(-c4cccnc4N)n(-c4ccc(CN5CCC(Nc6ccnc(C#N)n6)CC5)cc4)c3n2)cn1 [Example 466, 4-((1-(4-(2-(2-Aminopyridin-3-yl)-5-(1-ethyl-1H-pyrazol-4-yl)-3H-imidazo[4,5-b]pyridin-3-yl)benzyl)piperidin-4-yl)amino)pyrimidine-2-carbonitrile]
< 15 | Cn1nccc1-c1ccc2nc(-c3cccnc3N)n(-c3ccc(CN4CCC(Nc5ccnc(C#N)n5)CC4)cc3)c2n1 [Example 467, 4-((1-(4-(2-(2-Aminopyridin-3-yl)-5-(1-methyl-1H-pyrazol-5-yl)-3H-imidazo[4,5-b]pyridin-3-yl)benzyl)piperidin-4-yl)amino)pyrimidine-2-carbonitrile]
< 15 | N#Cc1nccc(NC2CCN(Cc3ccc(-n4c(-c5cccnc5N)nc5ccc(-c6cccc(N7CCCC7=O)c6)nc54)cc3)CC2)n1 [Example 468, 4-((1-(4-(2-(2-Aminopyridin-3-yl)-5-(3-(2-oxopyrrolidin-1-yl)phenyl)-3H-imidazo[4,5-b]pyridin-3-yl)benzyl)piperidin-4-yl)amino)pyrimidine-2-carbonitrile]
< 15 | COc1cc(F)ccc1-c1ccc2nc(-c3cccnc3N)n(-c3ccc(CN4CCC(Nc5ccnc(C#N)n5)CC4)cc3)c2n1 [Example 469, 4-((1-(4-(2-(2-Aminopyridin-3-yl)-5-(4-fluoro-2-methoxyphenyl)-3H-imidazo[4,5-b]pyridin-3-yl)benzyl)piperidin-4-yl)amino)pyrimidine-2-carbonitrile]
60 to 600 | N#Cc1nccc(NC2CCN(Cc3ccc(-n4c(-c5cccnc5N)nc5ccc(-c6ccccc6C(F)(F)F)nc54)cc3)CC2)n1 [Example 470, 4-((1-(4-(2-(2-Aminopyridin-3-yl)-5-(2-(trifluoromethyl)phenyl)-3H-imidazo[4,5-b]pyridin-3-yl)benzyl)piperidin-4-yl)amino)pyrimidine-2-carbonitrile]
15 to 60 | N#Cc1nccc(NC2CCN(Cc3ccc(-n4c(-c5cccnc5N)nc5ccc(-c6ccc(C(F)(F)F)cc6)nc54)cc3)CC2)n1 [Example 471, 4-((1-(4-(2-(2-Aminopyridin-3-yl)-5-(4-(trifluoromethyl)phenyl)-3H-imidazo[4,5-b]pyridin-3-yl)benzyl)piperidin-4-yl)amino)pyrimidine-2-carbonitrile]
< 15 | Cn1ncc(-c2ccc3nc(-c4cccnc4N)n(-c4ccc(CN5CCC(Nc6ccnc(C#N)n6)CC5)cc4)c3n2)n1 [Example 472, 4-((1-(4-(2-(2-Aminopyridin-3-yl)-5-(2-methyl-2H-1,2,3-triazol-4-yl)-3H-imidazo[4,5-b]pyridin-3-yl)benzyl)piperidin-4-yl)amino)pyrimidine-2-carbonitrile]
< 15 | Cc1noc(C)c1-c1ccc2nc(-c3cccnc3N)n(-c3ccc(CN4CCC(Nc5ccnc(C#N)n5)CC4)cc3)c2n1 [Example 473, 4-((1-(4-(2-(2-Aminopyridin-3-yl)-5-(3,5-dimethylisoxazol-4-yl)-3H-imidazo[4,5-b]pyridin-3-yl)benzyl)piperidin-4-yl)amino)pyrimidine-2-carbonitrile]
< 15 | N#Cc1nccc(NC2CCN(Cc3ccc(-n4c(-c5cccnc5N)nc5ccc(-c6cnn(C(F)F)c6)nc54)cc3)CC2)n1 [Example 474, 4-((1-(4-(2-(2-Aminopyridin-3-yl)-5-(1-(difluoromethyl)-1H-pyrazol-4-yl)-3H-imidazo[4,5-b]pyridin-3-yl)benzyl)piperidin-4-yl)amino)pyrimidine-2-carbonitrile]
< 15 | N#Cc1nccc(NC2CCN(Cc3ccc(-n4c(-c5cccnc5N)nc5ccc(-c6ccc(F)cc6F)nc54)cc3)CC2)n1 [Example 475, 4-((1-(4-(2-(2-Aminopyridin-3-yl)-5-(2,4-difluorophenyl)-3H-imidazo[4,5-b]pyridin-3-yl)benzyl)piperidin-4-yl)amino)pyrimidine-2-carbonitrile]
< 15 | COc1cccc(-c2ccc3nc(-c4cccnc4N)n(-c4ccc(CN5CCC(Nc6ccnc(C#N)n6)CC5)cc4)c3n2)n1 [Example 476, 4-((1-(4-(2-(2-Aminopyridin-3-yl)-5-(6-methoxypyridin-2-yl)-3H-imidazo[4,5-b]pyridin-3-yl)benzyl)piperidin-4-yl)amino)pyrimidine-2-carbonitrile]
